Tests used:
[1] = refractive index (Na D-line) (dimensionless); conditions: 94.64 kPa, Liquid, Standard Abbe refractometry
[2] = refractive index (other wavelength) (dimensionless); conditions: 94.64 kPa, Liquid, Standard Abbe refractometry
[3] = 96.64 kPa, Liquid, mechanical oscillator
[4] = xn = mol fraction of the nth substance listed; conditions: 96.64 kPa, Liquid, mechanical oscillator, x2 = 0
[5] = refractive index (Na D-line) (dimensionless); xn = mol fraction of the nth substance listed; conditions: 94.64 kPa, Liquid, Standard Abbe refractometry, x2 = 0
[6] = refractive index (other wavelength) (dimensionless); xn = mol fraction of the nth substance listed; conditions: 94.64 kPa, Liquid, Standard Abbe refractometry, x2 = 0

Cc1ccccc1 [toluene]
Conditions | mass density, 293.15 K [kg/m3] | mass density, 298.15 K [kg/m3] | mass density, 303.15 K [kg/m3] | refractive index, 293.15 K | refractive index, 298.15 K | refractive index, 303.15 K
[1] | – | – | – | 1.49687 | 1.49406 | 1.49124
[3] | 866.75 | 861.74 | 856.81 | – | – | –

refractive index, [2]
Conditions | Wavelength=404.7 nm | Wavelength=435.8 nm | Wavelength=486.1 nm | Wavelength=546.1 nm | Wavelength=587.6 nm | Wavelength=632.8 nm | Wavelength=644 nm | Wavelength=706.5 nm
293.15 K | 1.52597 | 1.51768 | 1.50826 | 1.50069 | 1.497 | 1.49379 | 1.49306 | 1.48975
298.15 K | 1.52295 | 1.51473 | 1.50537 | 1.49785 | 1.49419 | 1.49101 | 1.49028 | 1.48697
303.15 K | 1.51996 | 1.51177 | 1.50248 | 1.495 | 1.49137 | 1.4882 | 1.48748 | 1.48419

O [water]
Conditions | mass density, 298.15 K [kg/m3] | mass density, 303.15 K [kg/m3] | refractive index, 293.15 K | refractive index, 298.15 K | refractive index, 303.15 K
[1] | – | – | 1.33308 | 1.33257 | 1.33198
[3] | 996.61 | 994.87 | – | – | –

refractive index, [2]
Conditions | Wavelength=404.7 nm | Wavelength=435.8 nm | Wavelength=486.1 nm | Wavelength=546.1 nm | Wavelength=587.6 nm | Wavelength=632.8 nm | Wavelength=644 nm | Wavelength=706.5 nm
293.15 K | 1.34276 | 1.34021 | 1.33716 | 1.33454 | 1.33313 | 1.33183 | 1.33153 | 1.33003
298.15 K | 1.34222 | 1.33968 | 1.33665 | 1.33402 | 1.33262 | 1.33132 | 1.33102 | 1.32954
303.15 K | 1.34161 | 1.33909 | 1.33604 | 1.33344 | 1.33203 | 1.33073 | 1.33044 | 1.32897

O [water] + CC(=O)O
Conditions | mass density, 298.15 K [kg/m3] | mass density, 303.15 K [kg/m3] | refractive index, 293.15 K | refractive index, 298.15 K | refractive index, 303.15 K
[4] | 996.61 | 994.87 | – | – | –
[5] | – | – | 1.33308 | 1.33257 | 1.33198

refractive index, [6]
Conditions | Wavelength=404.7 nm | Wavelength=435.8 nm | Wavelength=486.1 nm | Wavelength=546.1 nm | Wavelength=587.6 nm | Wavelength=632.8 nm | Wavelength=644 nm | Wavelength=706.5 nm
293.15 K | 1.34276 | 1.34021 | 1.33716 | 1.33454 | 1.33313 | 1.33183 | 1.33153 | 1.33003
298.15 K | 1.34222 | 1.33968 | 1.33665 | 1.33402 | 1.33262 | 1.33132 | 1.33102 | 1.32954
303.15 K | 1.34161 | 1.33909 | 1.33604 | 1.33344 | 1.33203 | 1.33073 | 1.33044 | 1.32897

CC(=O)O [acetic acid]
Conditions | mass density, 293.15 K [kg/m3] | mass density, 298.15 K [kg/m3] | mass density, 303.15 K [kg/m3] | refractive index, 293.15 K | refractive index, 298.15 K | refractive index, 303.15 K
[1] | – | – | – | 1.37224 | 1.37012 | 1.36809
[3] | 1049.63 | 1043.57 | 1037.64 | – | – | –

refractive index, [2]
Conditions | Wavelength=404.7 nm | Wavelength=435.8 nm | Wavelength=486.1 nm | Wavelength=546.1 nm | Wavelength=587.6 nm | Wavelength=632.8 nm | Wavelength=644 nm | Wavelength=706.5 nm
293.15 K | 1.38345 | 1.38034 | 1.37681 | 1.37386 | 1.3723 | 1.37087 | 1.37055 | 1.36896
298.15 K | 1.38126 | 1.37816 | 1.37466 | 1.37174 | 1.37018 | 1.36876 | 1.36844 | 1.36686
303.15 K | 1.37917 | 1.37611 | 1.37261 | 1.36968 | 1.36815 | 1.36675 | 1.36643 | 1.36485

Cc1ccccc1 [toluene] + CC(=O)O
Conditions | mass density, 293.15 K [kg/m3] | mass density, 298.15 K [kg/m3] | mass density, 303.15 K [kg/m3] | refractive index, 293.15 K | refractive index, 298.15 K | refractive index, 303.15 K
[4] | 866.75 | 861.74 | 856.81 | – | – | –
[5] | – | – | – | 1.49687 | 1.49406 | 1.49124

refractive index, [6]
Conditions | Wavelength=404.7 nm | Wavelength=435.8 nm | Wavelength=486.1 nm | Wavelength=546.1 nm | Wavelength=587.6 nm | Wavelength=632.8 nm | Wavelength=644 nm | Wavelength=706.5 nm
293.15 K | 1.52597 | 1.51768 | 1.50826 | 1.50069 | 1.497 | 1.49379 | 1.49306 | 1.48975
298.15 K | 1.52295 | 1.51473 | 1.50537 | 1.49785 | 1.49419 | 1.49101 | 1.49028 | 1.48697
303.15 K | 1.51996 | 1.51177 | 1.50248 | 1.495 | 1.49137 | 1.4882 | 1.48748 | 1.48419
